Results from ChEMBL document CHEMBL1201862, “PubChem BioAssay data set” (2004).
Structures can show the parent of a compound that is named as a salt. Active and inactive are the calls of the source.

Key:
[1] = biological target: T1, Rac GTPase-activating protein 1 (Homo sapiens, UniProt Q9H0H5); test: blockers of MgcRacGAP-driven Rac1 GTP hydrolysis – biochemical, ADP Hunter fluorescence, primary and confirmatory, confirmation (AID 624330); assay type: functional
T1 sequence (Q9H0H5 whole entry): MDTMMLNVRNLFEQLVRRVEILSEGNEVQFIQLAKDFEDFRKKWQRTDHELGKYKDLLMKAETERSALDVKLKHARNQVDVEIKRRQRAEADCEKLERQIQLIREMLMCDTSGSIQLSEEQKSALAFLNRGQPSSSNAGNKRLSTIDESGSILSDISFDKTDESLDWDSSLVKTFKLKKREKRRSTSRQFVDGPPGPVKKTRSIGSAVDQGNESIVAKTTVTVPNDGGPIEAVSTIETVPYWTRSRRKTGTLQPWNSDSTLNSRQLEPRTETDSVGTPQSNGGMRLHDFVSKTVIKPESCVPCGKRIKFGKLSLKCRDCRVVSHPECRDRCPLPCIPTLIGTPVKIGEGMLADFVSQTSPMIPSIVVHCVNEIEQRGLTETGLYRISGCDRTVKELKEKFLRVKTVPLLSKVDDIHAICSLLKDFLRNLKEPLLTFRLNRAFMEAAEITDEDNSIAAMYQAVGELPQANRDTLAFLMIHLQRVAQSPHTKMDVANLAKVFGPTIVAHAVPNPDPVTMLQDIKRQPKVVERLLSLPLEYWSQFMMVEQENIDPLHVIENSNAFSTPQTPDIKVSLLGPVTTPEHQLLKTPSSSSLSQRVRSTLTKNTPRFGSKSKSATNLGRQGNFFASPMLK

Protein skinhead-1 = biological target: T2, Protein skinhead-1 (Caenorhabditis elegans, UniProt P34707); assay type: functional
T2 sequence (P34707 whole entry): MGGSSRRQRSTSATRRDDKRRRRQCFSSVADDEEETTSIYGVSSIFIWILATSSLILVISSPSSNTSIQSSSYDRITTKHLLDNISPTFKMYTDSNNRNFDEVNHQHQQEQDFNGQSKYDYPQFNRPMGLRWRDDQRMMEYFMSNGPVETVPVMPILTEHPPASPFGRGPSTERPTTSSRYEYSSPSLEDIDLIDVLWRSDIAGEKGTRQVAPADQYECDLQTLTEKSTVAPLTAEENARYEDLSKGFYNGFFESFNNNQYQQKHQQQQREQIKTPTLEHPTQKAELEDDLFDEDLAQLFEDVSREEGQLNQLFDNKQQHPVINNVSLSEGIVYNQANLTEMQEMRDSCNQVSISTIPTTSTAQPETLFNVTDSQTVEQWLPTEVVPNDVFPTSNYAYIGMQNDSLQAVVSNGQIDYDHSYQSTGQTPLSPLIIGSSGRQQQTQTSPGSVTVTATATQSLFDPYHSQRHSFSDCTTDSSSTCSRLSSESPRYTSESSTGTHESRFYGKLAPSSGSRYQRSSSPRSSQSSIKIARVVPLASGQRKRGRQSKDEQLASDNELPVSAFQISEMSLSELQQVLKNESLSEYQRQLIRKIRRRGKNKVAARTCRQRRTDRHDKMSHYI

[2] = luciferase reporter signal suppression in cells – H4 neuroglioma cells, luminescence, dose response (AID 1990); assay type: functional, cell-based
[3] = Luminescence Cell-Based Dose Response HTS to Identify Inhibitors of 5'UTR Stem-Loop Driven Prion Protein mRNA Translation in H4 Neuroglioblastoma Cells. [Related pubchem assays: 1827 (Project Summary), 1813 (Primary HTS)]; assay type: functional
[4] = alpha-synuclein stem-loop luciferase translation blockers – H4 neuroglioma cells, luminescence, confirmation (AID 1988); assay type: functional, cell-based
[5] = biological target: T3, Heat shock factor protein 1 (Mus musculus, UniProt P38532); test: decrease of HSF1-responsive luciferase luminescence – cell-based, NIH3T3, dose retest, confirmation (AID 2382); assay type: functional;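 note: NIH3T3 fibroblasts with HSF1-driven luciferase reporter stressed by proteasome inhibitor MG132; luminescence from HSF1-driven luciferase expression after 8 hours of MG132 stress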
T3 sequence (P38532 whole entry): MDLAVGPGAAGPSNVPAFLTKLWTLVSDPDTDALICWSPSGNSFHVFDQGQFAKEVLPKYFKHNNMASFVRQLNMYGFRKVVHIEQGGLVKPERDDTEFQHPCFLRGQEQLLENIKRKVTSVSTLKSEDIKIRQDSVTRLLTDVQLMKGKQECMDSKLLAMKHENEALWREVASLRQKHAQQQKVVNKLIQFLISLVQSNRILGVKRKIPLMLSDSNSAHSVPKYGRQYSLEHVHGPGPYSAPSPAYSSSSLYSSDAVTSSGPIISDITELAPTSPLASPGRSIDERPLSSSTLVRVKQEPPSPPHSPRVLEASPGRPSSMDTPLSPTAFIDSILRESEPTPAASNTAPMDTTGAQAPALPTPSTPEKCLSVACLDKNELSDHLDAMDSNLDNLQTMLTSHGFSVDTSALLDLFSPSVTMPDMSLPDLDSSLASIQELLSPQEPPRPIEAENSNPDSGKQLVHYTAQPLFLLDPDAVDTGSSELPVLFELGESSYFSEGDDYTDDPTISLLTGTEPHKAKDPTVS

[6] = viability of uninfected HEp-2 cells – cell-based, HTS, cytotoxicity control for RSV inhibitor project, dose response (AID 2410); assay type: functional; conditions: human respiratory syncytial virus
[7] = biological target: T4, Replicative DNA helicase DnaB (Mycobacterium tuberculosis, UniProt P9WMR3); test: DnaB intein splicing inhibitors, dose response, biochemical, cell-free fluorescence (AID 449749); assay type: functional
T4 sequence (P9WMR3 whole entry): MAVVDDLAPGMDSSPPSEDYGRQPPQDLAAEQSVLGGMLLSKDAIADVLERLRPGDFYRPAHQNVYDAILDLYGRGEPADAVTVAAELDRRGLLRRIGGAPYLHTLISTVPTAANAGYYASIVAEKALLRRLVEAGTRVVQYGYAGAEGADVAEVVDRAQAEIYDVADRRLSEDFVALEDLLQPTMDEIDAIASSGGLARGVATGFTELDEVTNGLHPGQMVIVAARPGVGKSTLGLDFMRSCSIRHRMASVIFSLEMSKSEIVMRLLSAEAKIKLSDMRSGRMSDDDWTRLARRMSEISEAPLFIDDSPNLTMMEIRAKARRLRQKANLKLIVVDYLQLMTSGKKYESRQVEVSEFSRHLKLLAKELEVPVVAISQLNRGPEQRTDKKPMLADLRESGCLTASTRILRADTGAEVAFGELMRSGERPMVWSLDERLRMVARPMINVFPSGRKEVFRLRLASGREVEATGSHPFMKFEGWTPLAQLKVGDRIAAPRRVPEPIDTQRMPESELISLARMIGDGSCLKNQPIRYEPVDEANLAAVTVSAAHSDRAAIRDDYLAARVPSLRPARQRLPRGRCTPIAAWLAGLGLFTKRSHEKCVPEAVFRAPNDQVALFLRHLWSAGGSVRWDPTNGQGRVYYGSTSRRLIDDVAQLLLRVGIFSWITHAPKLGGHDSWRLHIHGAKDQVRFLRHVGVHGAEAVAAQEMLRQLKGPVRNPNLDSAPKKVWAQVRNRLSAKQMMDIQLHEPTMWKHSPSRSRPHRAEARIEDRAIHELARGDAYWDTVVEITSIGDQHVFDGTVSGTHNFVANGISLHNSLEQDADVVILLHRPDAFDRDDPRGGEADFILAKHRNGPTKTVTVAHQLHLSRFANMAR

Protein RecA = biological target: T5, Protein RecA (Mycobacterium tuberculosis, UniProt P9WHJ3); test: Fluorescence Cell-Free Homogeneous Dose Retest to Identify Inhibitors of RecA-Intein Splicing Activity. [Related pubchem assays (depositor defined):AID2097, AID2223, AID489010, AID492950]; assay type: functional
T5 sequence (P9WHJ3 whole entry): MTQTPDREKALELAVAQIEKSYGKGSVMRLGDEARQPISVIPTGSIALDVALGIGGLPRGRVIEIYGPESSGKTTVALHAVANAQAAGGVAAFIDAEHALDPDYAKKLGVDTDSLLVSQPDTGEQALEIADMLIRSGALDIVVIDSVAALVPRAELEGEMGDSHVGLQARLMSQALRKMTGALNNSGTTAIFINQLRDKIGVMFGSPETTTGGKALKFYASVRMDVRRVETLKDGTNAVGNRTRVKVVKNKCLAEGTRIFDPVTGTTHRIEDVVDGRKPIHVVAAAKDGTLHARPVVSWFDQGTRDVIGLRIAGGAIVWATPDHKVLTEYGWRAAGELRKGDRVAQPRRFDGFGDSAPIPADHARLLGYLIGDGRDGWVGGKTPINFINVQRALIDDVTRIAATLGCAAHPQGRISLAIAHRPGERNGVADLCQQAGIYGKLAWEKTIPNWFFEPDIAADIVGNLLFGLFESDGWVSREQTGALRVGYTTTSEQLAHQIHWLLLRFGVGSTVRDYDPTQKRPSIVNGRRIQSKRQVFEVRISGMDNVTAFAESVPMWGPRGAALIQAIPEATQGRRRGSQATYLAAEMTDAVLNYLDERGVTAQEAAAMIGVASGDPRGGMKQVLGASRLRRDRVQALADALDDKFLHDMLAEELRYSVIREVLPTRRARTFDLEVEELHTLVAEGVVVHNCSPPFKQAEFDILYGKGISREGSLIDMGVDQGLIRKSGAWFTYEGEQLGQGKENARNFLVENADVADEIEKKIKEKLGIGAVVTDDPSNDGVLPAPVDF

[8] = Luminescence Cell-Based Dose Retest to Confirm Inhibitors of Cancer Stem Cells. [Related pubchem assays (depositor defined):AID2717, AID2721]; assay type: functional; conditions: Homo sapiens

CCn1cnc2cc(NCc3ccc(OC)cc3)ccc21
IC50 [1]: 92.1 µM (active)

COc1ccccc1N1CCN(CCC(=O)Nc2ccc3c(c2)OCO3)CC1
IC50 (Protein skinhead-1): > 100 µM (inactive)

CCC(NC(C)c1ccccc1)=C1C(=O)NC(=O)NC1=O (configuration not stated)
EC50 [2]: 18 µM (active) | EC50 [3]: > 120 µM (not active) | EC50 [4]: 18.2 µM (active)

N#CC1=C(N)Oc2cc(N)ccc2C1c1ccccc1Cl (configuration not stated)
EC50 [5]: > 195 µM (not active)

CSc1ccc(CN(C)Cc2cc(=O)oc3c(C)c(C)ccc23)cc1
EC50 [5]: > 195 µM (not active)

COc1ccc(C2C3=C(N=C4SCC(=O)N42)c2ccccc2CC3)cc1OC (configuration not stated)
IC50 (Protein skinhead-1): > 100 µM (inactive)

Cc1ccc(S(=O)(=O)N2CCCCC2)cc1NC(=O)CNCc1ccco1
IC50 [1]: 198 µM (active)

C=CCNC(=S)NNC(=O)c1cc(-c2cccnc2)nc2ccccc12
EC50 [5]: > 195 µM (not active)

Cc1ccc(CSc2nc3ccccc3c(=O)n2Cc2ccco2)cc1
IC50 (Protein skinhead-1): > 100 µM (inactive)

N#C/C(=C\c1cc(Cl)c(OCc2ccc(Cl)cc2)c(Cl)c1)C(N)=O
CC50 [6]: 36.8 µM (active) | AC50 [7]: > 380 µM (inactive) | EC50 (Protein RecA): > 380 µM (inconclusive)

CC(C)CC(=O)Nc1c2c(nn1-c1ccc(F)cc1)C[S+]([O-])C2 (configuration not stated)
EC50 [5]: > 195 µM (not active)

CCn1ncc2c(OCc3ccc(C#N)cc3)cc(C)nc21
EC50 [2]: 21.5 µM (active) | EC50 [3]: 24.9 µM (active) | EC50 [4]: 61.8 µM (active)

Clc1ccc(-c2cnc3ccccc3n2)cc1
IC50 (Protein skinhead-1): 92 µM (inactive)

CCCc1cc(-c2nc(-c3ccc(Cl)cc3)cs2)ccn1
AC50 [8]: 8.69 µM (active) | IC50 (Protein skinhead-1): 21 µM (active)

Nc1ccc(-n2nc3ccccc3n2)cc1
EC50 [2]: 31.8 µM (active) | EC50 [3]: 67 µM (active) | EC50 [4]: 5.68 µM (active)

COc1ccc(S(=O)(=O)N2CCCCCC2)cc1NC(=O)Cc1ccccc1F
EC50 [2]: 76.1 µM (active) | EC50 [3]: > 120 µM (not active) | EC50 [4]: > 120 µM (not active)

CCn1c(CSc2nnc(-c3ccncc3)n2CCOC)nc2cc(C(=O)O)ccc21
IC50 (Protein skinhead-1): > 100 µM (inactive)

Cc1cc(C)c(C)c(S(=O)(=O)Nc2ccc(O)cc2)c1C
IC50 [1]: 45.7 µM (active)

O=C(NNc1nc2ccccc2s1)Nc1ccccc1
EC50 [5]: > 195 µM (not active)

O=C(CCl)NC(Cc1ccccc1)c1ccccc1 (configuration not stated)
EC50 [5]: 17.1 µM (active)

Cc1nc2c(sc3nc(N4CCOCC4)c4c(c32)CC(C)(C)OC4)c(-c2ccc(Cl)cc2)c1C(=O)O
EC50 [5]: > 195 µM (not active)

Nc1cc2c(cc1N)-c1ccccc1C2
IC50 [1]: 23 µM (active)

CCCCNC(=O)OCC(CC)NC(=O)OCC(C)C (configuration not stated)
IC50 (Protein skinhead-1): > 100 µM (inactive)

Cc1csc2nc(CNS(=O)(=O)c3ccc4c(c3)CCCC4)cn12
IC50 (Protein skinhead-1): > 100 µM (inactive)

CCc1nc2ccccc2c(C(=O)OCC(=O)N(CCOC)c2c(N)n(Cc3ccccc3)c(=O)[nH]c2=O)c1C
IC50 (Protein skinhead-1): > 100 µM (inactive)

O=C(Cc1ccc(Cl)cc1)N/N=C/c1ccc(O)c(O)c1
IC50 [1]: 19.7 µM (active)

COc1cc(/C=N/NC(=O)c2cn(-c3cccc(C)n3)cn2)ccc1O
IC50 [1]: 36.1 µM (active)

COc1ccccc1N1CCN(/N=C/c2ccc(O)cc2O)CC1
IC50 [1]: 48 µM (active)

COc1ccc2c3c1O[C@H]1C[C@@H](O)C=C[C@@]31CCN(C)C2 [GALANTAMINE HYDROBROMIDE]
EC50 [2]: > 120 µM (not active) | EC50 [3]: > 120 µM (not active) | EC50 [4]: 11.1 µM (active)
